Data as given in US9604983B2, “Herbicidal 3-(2-benzyloxyphenyl)-2,4-dihydroxy-1,8-naphthyridine derivatives” (SYNGENTA LIMITED, priority 2013, dated 2017).

How the values were obtained:
Assay in all cases: Post-emergence efficacy, glasshouse pot test
Assay type in all cases: in vivo
Conditions in all cases: post-emergence application at 1000 g/ha; evaluated after 13 days; five point scale
[1] = test system: Alopecurus myosuroides (ALOMY)
Procedure: (§1) B1 Post-emergence Efficacy Seeds of a variety of test species are sown in standard soil in pots:—Solanum nigrum (SOLNI), Amaranthus retoflexus (AMARE), Setaria faberi (SETFA), Alopecurus myosuroides (ALOMY), Echinochloa crus-galli (ECHCG), Ipomoea hederacea (IPOHE). After 8 days cultivation (post-emergence) under controlled conditions in a glasshouse (at 24/16° C., day/night; 14 hours light; 65% humidity), the plants are sprayed with an aqueous spray solution derived from the formulation of the technical active ingredient in acetone/water (50:50) solution containing 0.5% Tween 20 (polyoxyethelyene sorbitan monolaurate, CAS RN 9005-64-5). Compounds are applied at 1000 g/ha. The test plants are then grown in a glasshouse under controlled conditions in a glasshouse (at 24/16° C., day/night; 14 hours light; 65% humidity) and watered twice daily. After 13 days, the test is evaluated for the percentage damage caused to the plant. The biological activities are shown below in Table 13, on a five point scale (5=80-100%; 4=60-79%; 3=40-59%; 2=20-39%; 1=0-19%).

[2] = test system: Amaranthus retoflexus (AMARE)
Procedure: as §1

[3] = test system: Echinochloa crus-galli (ECHCG)
Procedure: as §1

[4] = test system: Ipomoea hederacea (IPOHE)
Procedure: as §1

[5] = test system: Setaria faberi (SETFA)
Procedure: as §1

[6] = test system: Solanum nigrum (SOLNI)
Procedure: as §1

Compound | percentage damage caused to the plant, ALOMY [1] | percentage damage caused to the plant, AMARE [2] | percentage damage caused to the plant, ECHCG [3] | percentage damage caused to the plant, IPOHE [4] | percentage damage caused to the plant, SETFA [5] | percentage damage caused to the plant, SOLNI [6]
C#CCn1c(=O)c(-c2c(Cl)ccc(Cl)c2OCc2ccc(Cl)cc2)c(O)c2cccnc21 [Compound 2.003] | 3 (3=40-59%) | 5 (5=80-100%) | 5 (5=80-100%) | 5 (5=80-100%) | 4 (4=60-79%) | 5 (5=80-100%)
CC(C)C(=O)Oc1c(-c2cccc(Cl)c2OCc2ccccc2)c(=O)n(CC(F)F)c2nccnc12 [Compound 11.003] | 2 (2=20-39%) | 5 (5=80-100%) | 5 (5=80-100%) | 5 (5=80-100%) | 5 (5=80-100%) | 5 (5=80-100%)
CC(C)C(=O)Oc1c(-c2c(Cl)ccc(Cl)c2OCc2ccccc2)c(=O)n(CC(F)F)c2nccnc12 [Compound 3.008] | 4 (4=60-79%) | 5 (5=80-100%) | 5 (5=80-100%) | 5 (5=80-100%) | 5 (5=80-100%) | 5 (5=80-100%)
C#CCn1c(=O)c(-c2c(F)ccc(Cl)c2OCc2ccccc2)c(O)c2cccnc21 [Compound 6.001] | 3 (3=40-59%) | 5 (5=80-100%) | 4 (4=60-79%) | 5 (5=80-100%) | 2 (2=20-39%) | 5 (5=80-100%)
C#CCn1c(=O)c(-c2cccc(Cl)c2OCc2ccccc2)c(O)c2nccnc21 [Compound 10.003] | 4 (4=60-79%) | 5 (5=80-100%) | 5 (5=80-100%) | 5 (5=80-100%) | 5 (5=80-100%) | 5 (5=80-100%)
C#CCn1c(=O)c(-c2c(Cl)ccc(Cl)c2OCc2ccccc2)c(OC(=O)C(C)C)c2nccnc21 [Compound 1.008] | 5 (5=80-100%) | 5 (5=80-100%) | 5 (5=80-100%) | 5 (5=80-100%) | 5 (5=80-100%) | 5 (5=80-100%)
COc1ccnc2c1c(OC(=O)C(C)C)c(-c1c(Cl)ccc(Cl)c1OCc1ccccc1)c(=O)n2CC(F)F [Compound 3.007] | 1 (1=0-19%) | 4 (4=60-79%) | 1 (1=0-19%) | 2 (2=20-39%) | 1 (1=0-19%) | 2 (2=20-39%)
CC(C)C(=O)Oc1c(-c2c(F)ccc(Cl)c2OCc2ccccc2)c(=O)n(CC(F)F)c2nccnc12 [Compound 7.003] | 2 (2=20-39%) | 5 (5=80-100%) | 2 (2=20-39%) | 5 (5=80-100%) | 5 (5=80-100%) | 5 (5=80-100%)
COc1ccnc2c1c(O)c(-c1c(F)ccc(Cl)c1OCc1ccccc1)c(=O)n2CC(F)F [Compound 8.002] | 4 (4=60-79%) | 5 (5=80-100%) | 4 (4=60-79%) | 5 (5=80-100%) | 4 (4=60-79%) | 5 (5=80-100%)
C#CCn1c(=O)c(-c2c(Cl)ccc(Cl)c2OCc2ccccc2)c(OC(=O)C(C)C)c2cccnc21 [Compound 1.001, [3-(2-Benzyloxy-3,6-dichloro-phenyl)-2-oxo-1-prop-2-ynyl-1,8-naph-thyridin-4-yl]2-methylpropanoate] | 2 (2=20-39%) | 5 (5=80-100%) | 4 (4=60-79%) | 5 (5=80-100%) | 4 (4=60-79%) | 5 (5=80-100%)
CC(C)C(=O)Oc1c(-c2cccc(Cl)c2OCc2ccccc2)c(=O)n(CC(F)F)c2ncccc12 [Compound 11.001] | 1 (1=0-19%) | 5 (5=80-100%) | 1 (1=0-19%) | 5 (5=80-100%) | 1 (1=0-19%) | 5 (5=80-100%)
C#CCn1c(=O)c(-c2c(F)ccc(Cl)c2OCc2ccccc2)c(O)c2nccnc21 [Compound 6.003] | 4 (4=60-79%) | 5 (5=80-100%) | 4 (4=60-79%) | 5 (5=80-100%) | 5 (5=80-100%) | 5 (5=80-100%)
O=c1c(-c2c(Cl)ccc(Cl)c2OCc2ccc(Cl)cc2)c(O)c2cccnc2n1CC(F)F [Compound 4.003] | 1 (1=0-19%) | 5 (5=80-100%) | 2 (2=20-39%) | 5 (5=80-100%) | 1 (1=0-19%) | 5 (5=80-100%)
C#CCn1c(=O)c(-c2c(Cl)ccc(Cl)c2OCc2ccccc2)c(OC(=O)C(C)C)c2c(OC)ccnc21 [Compound 1.007] | 1 (1=0-19%) | 4 (4=60-79%) | 1 (1=0-19%) | 1 (1=0-19%) | 1 (1=0-19%) | 4 (4=60-79%)
COc1ccnc2c1c(OC(C)=O)c(-c1c(F)ccc(Cl)c1OCc1ccccc1)c(=O)n2CC(F)F [Compound 7.002] | 4 (4=60-79%) | 5 (5=80-100%) | 5 (5=80-100%) | 5 (5=80-100%) | 5 (5=80-100%) | 5 (5=80-100%)
C#CCn1c(=O)c(-c2c(Cl)ccc(Cl)c2OCc2ccc(C)cc2)c(O)c2cccnc21 [Compound 2.004] | 4 (4=60-79%) | 5 (5=80-100%) | 4 (4=60-79%) | 5 (5=80-100%) | 4 (4=60-79%) | 5 (5=80-100%)
O=c1c(-c2c(Cl)ccc(Cl)c2OCc2ccc(Cl)c(Cl)c2)c(O)c2cccnc2n1CC(F)F [Compound 4.005] | 1 (1=0-19%) | 5 (5=80-100%) | 1 (1=0-19%) | 5 (5=80-100%) | 1 (1=0-19%) | 5 (5=80-100%)
C#CCn1c(=O)c(-c2c(Cl)ccc(Cl)c2OCc2ccccc2)c(O)c2nccnc21 [Compound 2.008] | 5 (5=80-100%) | 5 (5=80-100%) | 5 (5=80-100%) | 5 (5=80-100%) | 5 (5=80-100%) | 5 (5=80-100%)
O=c1c(-c2c(Cl)ccc(Cl)c2OCc2ccccc2)c(O)c2nccnc2n1CC(F)F [Compound 4.008] | 4 (4=60-79%) | 5 (5=80-100%) | 5 (5=80-100%) | 5 (5=80-100%) | 5 (5=80-100%) | 5 (5=80-100%)
C#CCn1c(=O)c(-c2c(Cl)ccc(Cl)c2OCc2ccc(OC)cc2)c(O)c2cccnc21 [Compound 2.002] | 5 (5=80-100%) | 4 (4=60-79%) | 5 (5=80-100%) | 5 (5=80-100%) | 5 (5=80-100%) | 5 (5=80-100%)
CC(C)C(=O)Oc1c(-c2c(Cl)ccc(Cl)c2OCc2ccc(C(F)(F)F)cc2)c(=O)n(CC(F)F)c2ncccc12 [Compound 3.006] | 1 (1=0-19%) | 5 (5=80-100%) | 1 (1=0-19%) | 5 (5=80-100%) | 1 (1=0-19%) | 5 (5=80-100%)
